The target of one series is T1, rat mGluR5 (Rattus norvegicus, UniProt P31424).
T1 construct: expressed in transfected cells
T1 sequence (P31424 21-1171 isoform P31424-2 limits assumed): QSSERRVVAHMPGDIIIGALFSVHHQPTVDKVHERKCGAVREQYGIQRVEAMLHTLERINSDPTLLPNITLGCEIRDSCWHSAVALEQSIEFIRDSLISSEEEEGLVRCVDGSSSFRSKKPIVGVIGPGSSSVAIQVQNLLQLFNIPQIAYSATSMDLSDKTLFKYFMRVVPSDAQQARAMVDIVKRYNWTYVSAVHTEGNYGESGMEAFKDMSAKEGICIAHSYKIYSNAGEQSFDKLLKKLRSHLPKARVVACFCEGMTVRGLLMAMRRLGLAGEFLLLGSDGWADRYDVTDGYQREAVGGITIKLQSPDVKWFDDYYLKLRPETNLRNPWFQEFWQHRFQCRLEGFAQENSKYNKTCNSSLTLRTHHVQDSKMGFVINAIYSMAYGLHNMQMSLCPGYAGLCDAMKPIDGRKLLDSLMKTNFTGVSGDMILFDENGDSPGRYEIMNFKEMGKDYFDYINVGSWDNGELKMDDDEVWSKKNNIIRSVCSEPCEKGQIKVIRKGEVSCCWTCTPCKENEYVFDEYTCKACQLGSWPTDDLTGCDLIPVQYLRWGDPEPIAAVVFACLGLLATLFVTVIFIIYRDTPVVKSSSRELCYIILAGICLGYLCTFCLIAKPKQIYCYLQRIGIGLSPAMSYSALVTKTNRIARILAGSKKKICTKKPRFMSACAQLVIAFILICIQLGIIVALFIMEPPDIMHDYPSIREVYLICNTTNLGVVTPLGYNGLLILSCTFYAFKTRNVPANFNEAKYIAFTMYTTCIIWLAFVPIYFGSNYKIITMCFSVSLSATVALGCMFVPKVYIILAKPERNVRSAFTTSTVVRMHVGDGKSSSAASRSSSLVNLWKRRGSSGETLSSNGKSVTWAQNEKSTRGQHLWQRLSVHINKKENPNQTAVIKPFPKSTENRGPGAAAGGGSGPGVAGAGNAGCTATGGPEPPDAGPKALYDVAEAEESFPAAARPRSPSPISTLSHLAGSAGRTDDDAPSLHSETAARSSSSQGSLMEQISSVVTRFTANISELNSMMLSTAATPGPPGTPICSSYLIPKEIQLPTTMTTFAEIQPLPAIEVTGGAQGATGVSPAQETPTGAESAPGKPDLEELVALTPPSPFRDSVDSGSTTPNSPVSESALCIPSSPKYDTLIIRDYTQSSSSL
Kind of series: mGluR5 activity, cell-based Ca2+ fluorescence (FDSS) assay in human embryonic kidney cells transfected with rat mGluR5. The following applies: HEK cells transfected with rat mGluR5; antagonism of EC80 glutamate response; single experiment or average of two where no error is given. On the procedure: Human embryonic kidney (HEK) cells transfected with rat or human mGluR5 were plated in clear bottom assay plates for assay in a Functional Drug Screening System (FDSS). The cells were loaded with a Ca^2+-sensitive fluorescent dye (e.g., Fluo-4), and the plates were washed and placed in the FDSS instrument. Test compound was applied to cells 3 seconds after baseline readings were taken. Cells were incubated with the test compounds for 140 seconds and then stimulated with an EC20 concentration of an mGluR5 agonist (e.g., glutamate, 3,5-dihydroxyphenylglycine, or quisqualate); 60-80 seconds later an EC80 concentration of agonist was added and readings taken for an additional 40 seconds. Data were collected at 1 Hz. […] Concentration response curves were generated using a four parameter logistical equation.
The above described assay was operated in two modes. In the first mode (utilizing a triple add protocol), a range of concentrations of the present compounds were added to cells, followed by two single fixed concentrations of agonist (EC20 followed by EC80). If a compound acted as a potentiator, an EC50 value for potentiation of the EC20 response and a maximum extent of potentiation by the compound at this concentration of agonist was determined by non-linear curve fitting. If a compound acted as an antagonist, an IC50 value for antagonism of the EC80 response and a maximum extent of antagonism by the compound at this concentration of agonist was determined by non-linear curve fitting. In the second mode (utilizing a double add protocol), several fixed concentrations of the present compounds were added to various wells on a plate, followed by a range of concentrations of agonist for each concentration of present compound; the EC50 values for the agonist at each concentration of compound were determined by nonlinear curve fitting. A decrease in the EC50 value of the agonist with increasing concentrations of the present compounds (a leftward shift of the agonist concentration-response curve) is an indication of the degree of mGluR5 positive allosteric modulation at a given concentration of the present compound. An increase in the EC50 value of the agonist with increasing concentrations of the present compounds (a rightward shift of the agonist concentration response curve) is an indication of the degree of mGluR5 antagonism at a given concentration of the present compound. The second mode also indicates whether the present compounds also affect the maximum response to mGluR5 to agonists.
The mGluR5 activity was determined using the metabotropic glutamate receptor activity assays in human embryonic kidney cells as described herein, wherein the human embryonic kidney cells were transfected with rat mGluR5. The mGluR5 activity data for some compounds are shown as the average of at least three experiments with the standard error in these cases. If no error is indicated for the mGluR5 activity, the values given represent the results from a single experiment or the average of two experiments. The compounds in Table 1 were synthesized with methods identical or analogous to those shown herein. The requisite starting materials were commercially available, described in the literature, or readily synthesized by one skilled in the art of organic synthesis.
As to `Cc1csc(NC(=O)c2cc(C(=O)c3cncnc3)cc3cccnc23)n1`, the IC50 – broadly, the concentration needed to halve the response being measured – was determined as 73 nM.

Take `Cc1cccc(NC(=O)c2cc(C(=O)c3cncc(F)c3)cc3cccnc23)n1`: the IC50 was determined as 1620 nM. Regarding `O=C(c1cncc(F)c1)c1cc(C(=O)Nc2ccc(Cl)cn2)c2ncccc2c1`, the half-maximal inhibitory concentration (IC50) is over 30000 nM. Turning to `O=C(Nc1ccc(F)cn1)c1cc(C(F)c2cncnc2)cc2nccnc12` (stereo not drawn), the IC50 was over 10000 nM. On the same count and under the same terms, the same measure for `Cc1csc(NC(=O)c2cc(C(O)c3cncc(F)c3)cc3cccnc23)n1` (stereo not drawn): over 30000 nM; for `O=C(c1cncnc1)c1cc(C(=O)Nc2ccc(F)cn2)c2ncccc2c1`: 106 nM. As for `Cc1cccc(NC(=O)c2cc(C(=O)c3cncnc3)cc3nccnc23)n1`, the IC50 is 3090 nM. With `Cc1csc(NC(=O)c2cc(C(C)c3cncnc3)cc3cccnc23)n1` (stereo not drawn), the IC50 came out at 258 nM. With `O=C(c1cncc(F)c1)c1cc(C(=O)Nc2cccc(Cl)n2)c2ncccc2c1`, the IC50 is over 30000 nM. For `O=C(c1cncnc1)c1cc(C(=O)Nc2ccc(Cl)cn2)c2nccnc2c1`, the half-inhibitory concentration (IC50) turned out to be 176 nM.

As to `Cc1csc(NC(=O)c2cc(C(=O)c3cncc(F)c3)cc3cccnc23)n1`, the half-inhibitory concentration (IC50) stood at 444 nM. The same measure, in the same setting: the same measure for `O=C(c1cncnc1)c1cc(C(=O)Nc2ccc(Cl)cn2)c2ncccc2c1`: 148 nM. On to `O=C(Nc1ccc(F)cn1)c1cc(C(F)(F)c2cncnc2)cc2cccnc12`, for which the concentration for half-maximal inhibition (IC50) came to 109 nM. With `COC(c1cncnc1)c1cc(C(=O)Nc2nc(C)cs2)c2ncccc2c1` (stereo not drawn), the IC50 was found to be 552 nM. Turning to `O=C(c1cncnc1)c1cc(C(=O)Nc2cccc(F)n2)c2ncccc2c1`, the IC50 was 645 nM. As to `Cc1csc(NC(=O)c2cc(C(=O)c3cncnc3)cc3nccnc23)n1`, the IC50 is 380 nM. On to `Cc1csc(NC(=O)c2cc(C(O)c3cncnc3)cc3cccnc23)n1` (stereo not drawn), for which the half-inhibitory concentration (IC50) was over 10000 nM.

Regarding `CC(c1cncnc1)c1cc(C(=O)Nc2ccc(F)cn2)c2ncccc2c1` (stereo not drawn), the half-maximal inhibitory concentration (IC50) was 540 nM.

As for `Cc1csc(NC(=O)c2cc(C(F)c3cncnc3)cc3cccnc23)n1` (stereo not drawn), the IC50 was determined as 127 nM.

As to `Cc1cccc(NC(=O)c2cc(C(=O)c3cncnc3)cc3cccnc23)n1`, the IC50 worked out at 163 nM. `O=C(c1cncnc1)c1cc(C(=O)Nc2ccc(F)cn2)c2nccnc2c1`: the half-inhibitory concentration (IC50) was over 10000 nM.

As to `COC(c1cncnc1)c1cc(C(=O)Nc2ccc(F)cn2)c2ncccc2c1` (stereo not drawn), the 50% inhibitory concentration (IC50) was found to be 890 nM. On to `O=C(Nc1ccc(F)cn1)c1cc(C(F)c2cncnc2)cc2cccnc12` (stereo not drawn), for which the half-maximal inhibitory concentration (IC50) is 83 nM. Still for that read-out and setting: the same measure for `O=C(c1cncnc1)c1cc(C(=O)Nc2cccc(Cl)n2)c2ncccc2c1`: 696 nM.

The next series deals with mGluR4 (Homo sapiens, UniProt Q14833).
Chain of mGluR4 (Q14833 33-912): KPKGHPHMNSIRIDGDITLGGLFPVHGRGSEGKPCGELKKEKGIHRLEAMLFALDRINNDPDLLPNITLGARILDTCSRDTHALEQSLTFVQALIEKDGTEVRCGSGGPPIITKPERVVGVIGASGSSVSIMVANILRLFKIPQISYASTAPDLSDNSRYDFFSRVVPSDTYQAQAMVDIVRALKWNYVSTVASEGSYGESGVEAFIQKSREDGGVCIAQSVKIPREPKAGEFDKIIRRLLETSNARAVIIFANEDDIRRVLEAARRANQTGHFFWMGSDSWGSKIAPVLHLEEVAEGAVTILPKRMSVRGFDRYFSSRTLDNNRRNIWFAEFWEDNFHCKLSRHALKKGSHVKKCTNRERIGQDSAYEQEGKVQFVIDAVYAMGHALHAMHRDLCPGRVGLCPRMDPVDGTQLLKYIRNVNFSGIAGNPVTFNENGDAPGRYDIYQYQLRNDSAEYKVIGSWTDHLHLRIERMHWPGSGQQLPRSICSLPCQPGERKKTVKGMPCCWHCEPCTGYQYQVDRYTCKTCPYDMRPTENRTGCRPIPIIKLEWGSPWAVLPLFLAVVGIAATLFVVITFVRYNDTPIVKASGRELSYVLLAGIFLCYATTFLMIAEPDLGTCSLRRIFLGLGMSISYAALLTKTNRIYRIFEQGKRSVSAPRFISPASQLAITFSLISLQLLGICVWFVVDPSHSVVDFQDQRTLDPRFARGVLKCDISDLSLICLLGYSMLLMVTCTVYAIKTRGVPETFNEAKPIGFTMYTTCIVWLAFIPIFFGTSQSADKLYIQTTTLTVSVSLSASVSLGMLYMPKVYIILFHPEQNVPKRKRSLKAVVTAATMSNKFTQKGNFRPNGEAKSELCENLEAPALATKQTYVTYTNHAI
Assay: not given
The following applies: cited from earlier work.
For the compound `Cc1cccc(C#Cc2ccccc2)n1` [MPEP, 2-methyl-6-(phenylethynyl)pyridine], the “modulation of mGluR4” value was “positive allosteric modulator”.

The next series deals with marble burying activity in mice.
Assay: not given
As to conditions: literature reports; cited from earlier work.
`Cc1cccc(C#Cc2ccccc2)n1` [MPEP, 2-methyl-6-(phenylethynyl)pyridine]: the “effect in the marble burying model” value is listed as “effective”. In the case of `CN1CC(=O)N=C1NC(=O)Nc1cccc(Cl)c1` [fenobam, 1-(3-chlorophenyl)-3-(1-methyl-4-oxo-4,5-dihydro-1H-imidazol-2-yl)urea], the “effect in the marble burying model” value was “effective”.

System in another series: not given
Assay: not given
As to conditions: intravenous administration to rhesus monkeys; cited from earlier work.
As for `Cc1nc(C#Cc2cccnc2)cs1` [MTEP, 3-[(2-methyl-1,3-thiazol-4-yl)ethynyl]pyridine], the clearance entry is on record as “efficiently cleared”.

Another series has as its system N-methyl-D-aspartate (NMDA) receptor.
Assay: not given
As to conditions: at higher concentrations; cited from earlier work.
For the compound `Cc1cccc(C#Cc2ccccc2)n1` [MPEP, 2-methyl-6-(phenylethynyl)pyridine], the “inhibition of NMDA receptor activity” value is “directly inhibit”.

In a further series the target is T2, cytochrome P450 1A2 (Homo sapiens, UniProt P05177).
T2 sequence (P05177 1-516): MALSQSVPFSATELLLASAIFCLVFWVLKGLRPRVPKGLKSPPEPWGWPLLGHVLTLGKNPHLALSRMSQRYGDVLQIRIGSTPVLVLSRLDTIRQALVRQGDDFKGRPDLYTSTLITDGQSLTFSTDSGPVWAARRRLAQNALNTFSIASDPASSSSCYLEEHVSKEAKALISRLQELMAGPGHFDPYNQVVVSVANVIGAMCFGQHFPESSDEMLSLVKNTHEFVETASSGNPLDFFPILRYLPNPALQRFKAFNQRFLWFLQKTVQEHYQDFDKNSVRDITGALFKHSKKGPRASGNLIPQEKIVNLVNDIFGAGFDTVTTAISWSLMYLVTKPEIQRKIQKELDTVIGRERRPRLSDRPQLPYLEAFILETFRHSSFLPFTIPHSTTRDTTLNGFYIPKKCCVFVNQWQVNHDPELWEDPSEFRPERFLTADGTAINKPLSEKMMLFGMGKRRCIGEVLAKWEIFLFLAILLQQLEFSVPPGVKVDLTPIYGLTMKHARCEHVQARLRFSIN
Assay: not given
As to conditions: cited from earlier work.
For `Cc1nc(C#Cc2cccnc2)cs1` [MTEP, 3-[(2-methyl-1,3-thiazol-4-yl)ethynyl]pyridine], the “inhibition of cytochrome P450 1A2” value is on record as “potent inhibitor”.
